# Experimental data: US20190343782A1, “METHODS OF TREATING LIVER TOXICITY AND DISORDERS” (Yeda Research and Development Co. Ltd., priority 2016, published 2019)
# Experiment: APAP-induced hepatotoxicity: liver enzyme release and liver histology
# Format: in vivo
# Conditions: control mice; APAP 500 mg/kg intraperitoneally at ZT0 versus ZT12; analyzed 10 hours after injection
# Procedure: Mice: C57B1/6 mice were purchased from Harlan and allowed to acclimatize to the animal facility environment for 2 weeks before used for experimentation. […] In all experiments, age- and gender-matched mice were used. Mice were 8-9 weeks of age at the beginning of experiments. All mice were kept at a strict 24-hour light-dark cycle, with lights being turn on from 6 am to 6 pm. […] Acetaminophen was administered intraperitoneally at a concentration of 500 mg/kg at either ZT0 or ZT12, and mice were analyzed 10 hours after injection. All antibiotics as well as acetaminophen were obtained from Sigma Aldrich.
# Histology: Sections from the left lobe of the liver were fixed in paraformaldehyde and embedded in paraffin for staining with H&E. Subsequently, sections were examined by a blinded veterinary pathologist and scored for necrosis and hemorrhage on a scale from 0 (healthy) to 3 (most severe).
# Statistical analysis: Data are expressed as mean ±SEM. […] Unless stated otherwise, elements with p<0.05 and q<0.1 were considered significant. For metabolites, q<0.2 was considered significant. For two-group comparisons, Mann-Whitney U-test was used and comparisons with p<0.05 were considered significant.
smiles,measurement,value
"CC(=O)Nc1ccc(O)cc1 [APAP, acetaminophen]","APAP-induced hepatotoxicity (liver enzyme release, liver histology)",dramatically exacerbated liver toxicity when APAP was injected at ZT12 as compared to ZTO
